# Marks after values point to notes of the source that are not given here.
# Experiments:
# [1] = test system: Middle cerebral artery occlusion (MCAO) models of SD rata; experiment: Rat MCAO model, 28-day dosing, pathological examination (restoration area, perfused blood vessels); type: in vivo, SD rats; conditions: for Proportion of samples showing good recovery (%): restoration area > 30%; for No. of erythrocyte-containing blood vessels ≤10: number of animals
# Description: Middle cerebral artery occlusion (MCAO) models of SD rata were constructed by using the suture occlusion method. The rats were administered with the test compound for 28 consecutive days. The pharmacodynamic evaluation on the test compound for cerebral stroke was obtained based on general observation and neurobehavioral assessment. […] The ECA was ligated. The ICA was temporarily occluded. Sutures were threaded at both the proximal end and the distal end of CCA. The distal end was securely ligated, and a loosely tied knot was placed at the proximal end. A small incision was made on the CCA between these two sutures. […] The threading was halted temporarily when reaching the artery clamp of ICA. The pre-ligation suture was further tightened. The artery clamp blocking the blood flow in the ICA was removed, allowing the suture occlusion to be advanced into the ICA until it entered the intracranial region. […] The insertion was stopped at the moment, and the time was recorded. The artery clamp on the CCA was removed and the incision was closed after no active bleeding was observed. The ischemic rats were placed at room temperature to keep their body temperature at 37°C, and anesthesia induction could be carried out 120min later. The suture was slowly and gradually withdrawn under anesthesia until the proximal end retracted into the ECA, thereby initiating reperfusion of the middle cerebral artery. Animals received the designated dosage immediately (within 10 min) after reperfusion. This dosing regimen continued once daily for a duration of 28 days, with the day of operation being defined as D1 (Day 0). […] After the completion of the 28-day dosing period, all surviving animals in the study were euthanized, and their brains were rapidly collected for pathological analysis. […] Table 8 Results of Grid Walking Test […] Table 10 Summary of Tissue Restoration in Each Group
# [2] = test system: Middle cerebral artery occlusion (MCAO) models of SD rata; experiment: Rat MCAO model, 28-day dosing, grid walking test; type: in vivo, SD rats; conditions: Mean±SD
# Description: Middle cerebral artery occlusion (MCAO) models of SD rata were constructed by using the suture occlusion method. The rats were administered with the test compound for 28 consecutive days. The pharmacodynamic evaluation on the test compound for cerebral stroke was obtained based on general observation and neurobehavioral assessment. […] The ECA was ligated. The ICA was temporarily occluded. Sutures were threaded at both the proximal end and the distal end of CCA. The distal end was securely ligated, and a loosely tied knot was placed at the proximal end. A small incision was made on the CCA between these two sutures. […] The threading was halted temporarily when reaching the artery clamp of ICA. The pre-ligation suture was further tightened. The artery clamp blocking the blood flow in the ICA was removed, allowing the suture occlusion to be advanced into the ICA until it entered the intracranial region. […] The insertion was stopped at the moment, and the time was recorded. The artery clamp on the CCA was removed and the incision was closed after no active bleeding was observed. The ischemic rats were placed at room temperature to keep their body temperature at 37°C, and anesthesia induction could be carried out 120min later. The suture was slowly and gradually withdrawn under anesthesia until the proximal end retracted into the ECA, thereby initiating reperfusion of the middle cerebral artery. Animals received the designated dosage immediately (within 10 min) after reperfusion. This dosing regimen continued once daily for a duration of 28 days, with the day of operation being defined as D1 (Day 0). […] After the completion of the 28-day dosing period, all surviving animals in the study were euthanized, and their brains were rapidly collected for pathological analysis. […] Table 8 Results of Grid Walking Test
# [3] = Pharmacokinetics of butylphthalide in rats (literature values); conditions: rat; calculated based on the literature value of AUC0-inf (p.o. 60 mg/kg vs i.v. 10 mg/kg)
# [4] = Pharmacokinetic test in rats; type: in vivo, Male SD rats; conditions: rat; p.o. 10 mg/kg vs i.v. 1 mg/kg
# Description: Male SD rats (weighing 180-260g) were administered with the compound of formula (I) intravenously at a dose of 1.0 mg/kg via tail vein injection, and orally at a dose of 10.0 mg/kg. Each group consisted of 3 animals. The solvent for administration was a solution of 5% DMSO + 5% polyethoxylated castor oil (Cremophor EL) in normal saline. The rats were fasted for about 12 h before administration and were given ad libitum access to food 4 h after administration, and water was available all the time. Blood was collected from the orbit at about 0.2 mL before administration and 5 min, 15 min, 30 min, 1 h, 2 h, 4 h, 6 h, 8 h, and 24 h after administration. The samples were placed in EDTA-K2 anticoagulant EP tubes in an ice bath, and subjected to low-speed centrifugation at 4°C and 3500 rpm for 10 min to isolate plasma, which was then stored at -20°C before analysis. The plasma concentration of the compound of formula (I) was determined using liquid chromatography-tandem mass spectrometry (LC-MS/MS). Pharmacokinetic parameters were calculated from the analysis results of the samples using WinNonlin software.
# SOD1 G93A ALS mice = experiment: SOD1-G93A ALS mice, survival; type: in vivo; conditions: 40 mg/kg dose group
# [5] = test system: rat spinal cord injury model; experiment: Rat spinal cord injury model, Neurofilament 200 (NF200) expression; type: in vivo, Male SD rats; conditions: mean±SD, n=6
# [6] = test system: MPTP-induced Parkinson's disease model mice; experiment: MPTP-induced mouse Parkinson's disease model, striatal dopamine (DOPA) detection; type: in vivo, C57 mice; conditions: striatum, four weeks, mean ± SD
# [7] = 60mg/kg p.o. q.d. 28 days, N = 14
# [8] = high dose 20mg/kg p.o. q.d. 28 days
# [9] = high dose 20mg/kg p.o. q.d. 28 days, N = 12
# [10] = low dose 6mg/kg p.o. q.d. 28 days
# [11] = low dose 6mg/kg p.o. q.d. 28 days, N = 12
compound,measurement,setting,value
"CCCCC1OC(=O)c2ccccc21 (centres unmarked) [Butylphthalide, butylphthalide, reference compound]",Proportion of erythrocyte-containing blood vessels>10 (%),[1]; 60mg/kg p.o. q.d. 28 days,93.3%
same,Number of samples Restoration area > 30%,[1]; [7],3
same,Number of samples Restoration area ≤ 30%,[1]; [7],11
same,Proportion of samples showing good recovery (%),[1]; 60mg/kg p.o. q.d. 28 days,21.4%
same,No. of erythrocyte-containing blood vessels ≤10,"[1]; 60mg/kg p.o. q.d. 28 days, N = 15",1
same,Misstep frequency (times),"[2]; 60mg/kg p.o. q.d., 1W after operation, listed as NBP",7.37±3.03 times
same,Misstep frequency (times),"[2]; 60mg/kg p.o. q.d., 2W after operation",8.10± 2.97 times
same,Misstep frequency (times),"[2]; 60mg/kg p.o. q.d., 3W after operation",6.27± 2.890 times
same,Misstep frequency (times),"[2]; 60mg/kg p.o. q.d., 4W after operation",2.10± 1.46 times
same,F,[3],16.6* %
CCC/C(O)=C1/C(=O)Oc2ccccc21 [Compound (I)],Proportion of erythrocyte-containing blood vessels>10 (%),[1]; [8],92.3%
same,Number of samples Restoration area > 30%,[1]; [9],9**
same,Number of samples Restoration area ≤ 30%,[1]; [9],3
same,Proportion of samples showing good recovery (%),[1]; [8],75.0%
same,Proportion of erythrocyte-containing blood vessels>10 (%),[1]; [10],100%
same,Number of samples Restoration area > 30%,[1]; [11],4
same,Number of samples Restoration area ≤ 30%,[1]; [11],8
same,Proportion of samples showing good recovery (%),[1]; [10],33.3%
same,No. of erythrocyte-containing blood vessels ≤10,"[1]; high dose 20mg/kg p.o. q.d. 28 days, N = 13",1
same,No. of erythrocyte-containing blood vessels ≤10,[1]; [11],0
same,Misstep frequency (times),"[2]; high dose 20mg/kg p.o. q.d., 1W after operation, 20 mg/kg",4.23±1.44 times
same,Misstep frequency (times),"[2]; high dose 20mg/kg p.o. q.d., 1W after operation, listed as compound (I), 20 mg/kg",4.23±1.44 times
same,Misstep frequency (times),"[2]; high dose 20mg/kg p.o. q.d., 2W after operation",3.23± 2.56 times
same,Misstep frequency (times),"[2]; high dose 20mg/kg p.o. q.d., 3W after operation",2.50± 0.81 times
same,Misstep frequency (times),"[2]; high dose 20mg/kg p.o. q.d., 4W after operation",1.42± 1.11 times
same,Misstep frequency (times),"[2]; low dose 6mg/kg p.o. q.d., 1W after operation, 6 mg/kg",5.33± 2.33 times
same,Misstep frequency (times),"[2]; low dose 6mg/kg p.o. q.d., 1W after operation, listed as compound (I), 6 mg/kg",5.33±2.33 times
same,Misstep frequency (times),"[2]; low dose 6mg/kg p.o. q.d., 2W after operation",6.33± 3.53 times
same,Misstep frequency (times),"[2]; low dose 6mg/kg p.o. q.d., 3W after operation",4.38± 2.44 times
same,Misstep frequency (times),"[2]; low dose 6mg/kg p.o. q.d., 4W after operation",2.58± 1.55 times
same,F,[4],144.2%
(Z)-3-(1-hydroxybutenyl)benzofuran-2-one tromethamine salt [Example 10],extension of survival,SOD1 G93A ALS mice,approximately 15 days
same,Positive Count (number per field of view),[5]; high dose 20 mg/kg,30.3±7.4 number per field of view
same,Positive Count (number per field of view),[5]; low dose 5 mg/kg,22.5± 7.5 number per field of view
same,DOPA,"[6]; high dose 20 mg/kg daily, listed as Tromethamine salt from Example 10, 20 mg/kg",2731.07 ± 868.18 ng/g
same,DOPA,"[6]; high dose 20 mg/kg daily, listed as tromethamine salt from Example 10, 20 mg/kg",2731.07 ± 868.18 ng/g
same,DOPA,"[6]; low dose 5 mg/kg daily, listed as Tromethamine salt from Example 10, 5 mg/kg",837.82±372.19^& ng/g
same,DOPA,"[6]; low dose 5 mg/kg daily, listed as tromethamine salt from Example 10, 5 mg/kg",837.82 ± 372.19 ng/g

# Source: EP4660190A1, “PHARMACEUTICALLY ACCEPTABLE SALT OF COMPOUND AND PREPARATION METHOD THEREFOR” (Jiangsu Chia Tai Fenghai Pharmaceutical Co., Ltd., priority 2023, dated 2024)
